Assays:
Androgen receptor [1] = target: T1, Androgen receptor (Rattus norvegicus, UniProt P15207)
T1 sequence (P15207 whole entry): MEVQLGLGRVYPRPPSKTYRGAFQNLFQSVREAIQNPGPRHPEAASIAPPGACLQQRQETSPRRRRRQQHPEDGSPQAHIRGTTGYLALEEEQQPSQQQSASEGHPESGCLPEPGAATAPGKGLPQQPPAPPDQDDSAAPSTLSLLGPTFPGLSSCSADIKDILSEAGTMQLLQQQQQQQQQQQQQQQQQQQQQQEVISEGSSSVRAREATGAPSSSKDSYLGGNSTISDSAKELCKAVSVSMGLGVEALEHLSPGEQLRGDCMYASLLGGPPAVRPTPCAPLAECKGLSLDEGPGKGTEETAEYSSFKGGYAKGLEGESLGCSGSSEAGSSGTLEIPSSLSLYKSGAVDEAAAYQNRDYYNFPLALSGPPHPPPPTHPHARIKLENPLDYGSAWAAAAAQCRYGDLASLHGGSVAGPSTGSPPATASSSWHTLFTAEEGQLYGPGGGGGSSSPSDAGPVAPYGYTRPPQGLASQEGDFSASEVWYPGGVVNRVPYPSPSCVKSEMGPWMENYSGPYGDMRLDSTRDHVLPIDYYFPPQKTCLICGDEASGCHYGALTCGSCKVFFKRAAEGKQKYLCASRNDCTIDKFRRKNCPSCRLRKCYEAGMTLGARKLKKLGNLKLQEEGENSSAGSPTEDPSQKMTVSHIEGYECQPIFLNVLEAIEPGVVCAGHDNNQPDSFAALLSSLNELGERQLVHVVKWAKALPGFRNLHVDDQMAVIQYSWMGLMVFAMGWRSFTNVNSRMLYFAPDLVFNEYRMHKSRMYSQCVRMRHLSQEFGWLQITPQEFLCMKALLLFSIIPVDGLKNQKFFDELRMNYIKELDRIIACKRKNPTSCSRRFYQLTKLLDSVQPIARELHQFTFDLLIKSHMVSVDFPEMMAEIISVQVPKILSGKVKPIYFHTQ
Description: In vivo binding affinity for rat ventral prostate androgen receptor by displacement of [3H]R-1881

[2] = target: T2, Androgen receptor (Rattus norvegicus) (UniProt P15207); test: […] relative binding affinity (1h/18h) as ratio of binding affinities for R1881 and compound against rat ventral prostate androgen receptor using [3H]- R1881 as radioligand; 1.2/0.05
T2 sequence (whole entry): T1 sequence (P15207 whole entry)

[3] = target: T2, Androgen receptor (Rattus norvegicus); test: […] relative binding affinity (1h/18h) as ratio of binding affinities for R1881 and compound against rat ventral prostate androgen receptor using [3H]- R1881 as radioligand; <.01/<.01
Androgen receptor [4] = target: T1, Androgen receptor; test: […] binding affinity for rat ventral prostate androgen receptor by displacement of [3H]R-1881; set-up: species or system Prostate gland
[5] = target: T2, Androgen receptor (Rattus norvegicus); test: […] relative binding affinity (1h/18h) as ratio of binding affinities for R1881 and compound against rat ventral prostate androgen receptor using [3H]- R1881 as radioligand; 0.26/0.04
[6] = target: T2, Androgen receptor (Rattus norvegicus); test: […] relative binding affinity (1h/18h) as ratio of binding affinities for R1881 and compound against rat ventral prostate androgen receptor using [3H]- R1881 as radioligand; <0.01/<0.01

`C#C[C@]1(O)CCC2C3CC[C@H]4Cc5oc(S(C)(=O)=O)cc5C[C@]4(C)C3CC[C@@]21C` (some centres undefined) showed a Ki (Androgen receptor [1]) of 520 nM.
With `C#C[C@]1(O)CCC2C3CC[C@H]4Cc5oc(S(C)(=O)=O)nc5C[C@]4(C)C3CC[C@@]21C` (some centres undefined) the relative binding affinity (RBA) [2] was 1.2.
In the case of `C#C[C@]1(O)CCC2C3CC[C@H]4Cc5sc(S(C)(=O)=O)cc5C[C@]4(C)C3CC[C@@]21C` (some centres undefined), the relative binding affinity (RBA) [3] is reported as under 0.01 and the Ki (Androgen receptor [1]) is reported as over 29000 nM.
`C#C[C@]1(O)CCC2C3CC[C@H]4Cc5nc(S(C)(=O)=O)ncc5C[C@]4(C)C3CC[C@@]21C` (some centres undefined) showed a Ki (Androgen receptor [4]) of 3000 nM and a relative binding affinity (RBA) [5] of 0.26.
Work on `C#C[C@]1(O)CCC2C3CC[C@H]4Cc5nc(S(C)(=O)=O)sc5C[C@]4(C)C3CC[C@@]21C` (some centres undefined) yielded a Ki (Androgen receptor [1]) of 860 nM.
Work on `C#C[C@]1(O)CCC2C3CC[C@H]4Cc5cc(S(C)(=O)=O)oc5C[C@]4(C)C3CC[C@@]21C` (some centres undefined) yielded a relative binding affinity (RBA) [6] of under 0.01 and a Ki (Androgen receptor [1]) of over 29000 nM.
